Data set [1] relates to SARS-CoV-2 isolate USA-WA1/2020. As to the kind of experiment: microbe, parasite or virus in culture. The class given is cell-based. The following applies: for EC50: read-out: SARS-CoV-2 EC50; for inhibition at 2.1 µM: Conc. 2.1 µM (0.4 × CC50).
The nature of data set [2]: Cell viability assay (MTS) in non-infected cells. The following applies: human.
In data set [3] the target is T1, p97 (Homo sapiens, UniProt P55072).
T1 construct: made in house
As to the kind of experiment: p97 biochemical assay (ATPase activity, PNP/MesG coupled). The following applies: 0.2 mM ATP, 5 min preincubation; for inhibition at 0.1 µM: read-out: p97 Inhib. (%) at 0.10 µM, compound 0.10 µM; for inhibition at 1 µM: read-out: p97 Inhib. (%) at 1.0 µM, compound 1.0 µM; for p97 Inhib. (%) at 0.10 µM: compound 0.10 µM.

In data set [4] the test system is A549/ACE2/TMPRSS2 cells. As to the kind of experiment: Cell viability assay (MTS) in non-infected cells.
Setting [5] is: Severe acute respiratory syndrome coronavirus 2, A549-ACE2, 48 h.
Where [6] appears, read: Severe acute respiratory syndrome coronavirus 2, A549-ACE2, 48 h, read-out: SARS-CoV-2 Inhib. (%).
Where [7] appears, read: Severe acute respiratory syndrome coronavirus 2, A549/ACE2/TMPRSS2, MOI 0.01, 48 h, mean ± standard error, read-out: SARS-CoV-2 Inhib. (%).
Where [8] appears, read: tested at 0.4 × CC50, or at 50 µM if CC50 higher than 100 µM, A549/ACE2/TMPRSS2.
Where [9] appears, read: Severe acute respiratory syndrome coronavirus 2, Conc. 50 µM, A549/ACE2/TMPRSS2, MOI 0.01, 48 h, mean ± standard error, read-out: SARS-CoV-2 Inhib. (%).

Read-outs that look alike come from different tables or passages of the source.

T1 sequence (P55072 whole entry): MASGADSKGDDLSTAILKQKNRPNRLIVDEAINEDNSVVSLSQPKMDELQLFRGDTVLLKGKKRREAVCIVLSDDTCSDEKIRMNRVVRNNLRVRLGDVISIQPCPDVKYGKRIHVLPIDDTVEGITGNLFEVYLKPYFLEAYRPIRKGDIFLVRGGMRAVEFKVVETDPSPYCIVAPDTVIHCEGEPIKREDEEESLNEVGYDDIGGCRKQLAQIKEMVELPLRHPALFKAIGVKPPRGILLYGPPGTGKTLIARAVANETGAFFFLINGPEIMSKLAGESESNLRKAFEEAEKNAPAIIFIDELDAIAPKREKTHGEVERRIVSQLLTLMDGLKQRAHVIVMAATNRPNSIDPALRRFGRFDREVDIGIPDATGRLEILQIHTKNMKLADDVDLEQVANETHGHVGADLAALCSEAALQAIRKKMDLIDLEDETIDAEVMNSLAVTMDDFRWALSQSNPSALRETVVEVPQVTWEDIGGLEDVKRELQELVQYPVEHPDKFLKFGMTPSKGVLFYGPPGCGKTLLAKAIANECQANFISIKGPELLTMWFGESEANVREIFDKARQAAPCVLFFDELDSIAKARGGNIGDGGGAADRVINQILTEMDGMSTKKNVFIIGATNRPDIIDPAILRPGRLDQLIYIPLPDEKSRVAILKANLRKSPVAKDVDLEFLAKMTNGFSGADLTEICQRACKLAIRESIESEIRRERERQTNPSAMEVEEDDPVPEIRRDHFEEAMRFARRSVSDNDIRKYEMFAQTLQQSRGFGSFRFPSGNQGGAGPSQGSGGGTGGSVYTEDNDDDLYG

A word on the EC50: it is the concentration at which the effect is half-maximal. As usually defined, the CC50 is the concentration at which the toxic effect on the cells reaches its halfway point. Higher therefore signals better tolerance by the cells. For the molecule `CCC(CC)COC(=O)[C@H](C)N[P@](=O)(OC[C@H]1O[C@@](C#N)(c2ccc3c(N)ncnn23)[C@H](O)[C@@H]1O)Oc1ccccc1` [remdesivir, reference compound], the EC50 in data set [1] (setting [5]) worked out at 0.044 µM. In data set [1] (setting [6]), the inhibition at 2 µM amounted to 100%. In data set [2], this molecule gave a CC50 at 48 h above 10 µM.

With `C=CS(=O)(=O)Nc1cccc2c1cc(C)n2-c1nc(NCc2ccccc2)cc(N2CCOCC2)n1` [Compound 8c, N-(1-(4-(Benzylamino)-6-morpholinopyrimidin-2-yl)-2-methyl-1H-indol-4-yl)ethenesulfonamide], in data set [1] (setting [7]), the inhibition at 2.1 µM came out at 8 ± 3%. For the same molecule, in data set [3], the inhibition at 0.1 µM was found to be 65% and the inhibition at 1 µM is 89%. Also, in data set [2], the CC50 at 48 h came out at 5.2 µM.

In the case of `CC#CC(=O)Nc1cccc2c1cc(C)n2-c1nc(NCc2ccccc2)cc(N2CCOCC2)n1` [Compound 8a, N-(1-(4-(Benzylamino)-6-morpholinopyrimidin-2-yl)-2-methyl-1H-indol-4-yl)but-2-ynamide], the inhibition at 0.96 µM in data set [1] (setting [6]) stood at 3 ± 5%. Also, in data set [3], the inhibition at 0.1 µM is around 90% and the inhibition at 1 µM is 97%. Further, the cytotoxic concentration (CC50) at 48 h in data set [2] was found to be 2.4 µM.

As to `CC#CC(=O)Nc1cccc2c1cc(C)n2-c1nc(NCc2ccccc2)cc(C2CCCCC2)n1` [Compound 10a, N-(1-(4-(Benzylamino)-6-cyclohexylpyrimidin-2-yl)-2-methyl-1H-indol-4-yl)but-2-ynamide], the EC50 in data set [1] (setting [5]) came to 6.8 ± 0.6 µM. For the same molecule, the inhibition at 50 µM in data set [1] (setting [6]) is 96 ± 1%. The “anti-SARS-CoV-2 activity (in words)” value in data set [1] (setting [8]) is given as “excellent antiviral activity”. Moreover, in data set [3], the inhibition at 0.1 µM is around 90% and the inhibition at 1 µM was determined as 100%. In data set [2], this molecule had a CC50 at 48 h above 100 µM.

For the molecule `C=CS(=O)(=O)Nc1cccc2c1cc(C)n2-c1nc(NCc2ccccc2)cc(C2CCCCC2)n1` [Compound 10c, N-(1-(4-(Benzylamino)-6-cyclohexylpyrimidin-2-yl)-2-methyl-1H-indol-4-yl)ethenesulfonamide], the inhibition at 4.8 µM in data set [1] (Severe acute respiratory syndrome coronavirus 2, Conc. 4.8 µM (0.4 × CC50), A549/ACE2/TMPRSS2, MOI 0.01, 48 h, mean ± standard error, read-out: SARS-CoV-2 Inhib. (%)) amounted to 7 ± 3%. In data set [1] (setting [8]), the “anti-SARS-CoV-2 activity (in words)” value is “marginal inhibition”. Also, in data set [3], the inhibition at 0.1 µM turned out to be 68% and the inhibition at 1 µM stood at 95%. The same molecule came in with a CC50 at 48 h in data set [2] of 12 µM.

Turning to `Cc1cc2c(C(N)=O)cccc2n1-c1nc(NCc2ccccc2)cc(C2CCCCC2)n1` [Compound 12], the “p97 Inhib. (%) at 1.0 µM” value in data set [3] (compound 1.0 µM) is “minimal inhibition”. In data set [3], the inhibition at 0.1 µM came out at 18% and the inhibition at 1 µM was 21%.

As for `C=CC(=O)Nc1cccc2c1cc(C)n2-c1nc(NCc2ccccc2)cc(N2CCOCC2)n1` [Compound 8b, N-(1-(4-(Benzylamino)-6-morpholinopyrimidin-2-yl)-2-methyl-1H-indol-4-yl)acrylamide], the inhibition at 2.1 µM in data set [1] (setting [7]) is 5 ± 8%. Moreover, in data set [3], the inhibition at 0.1 µM was 77% and the inhibition at 1 µM came out at 96%. Besides, in data set [2], the 50% cytotoxic concentration (CC50) at 48 h turned out to be 5.2 µM.

`Cc1cc(OCc2nnc(SC3CCCC3)n2-c2cccnc2)ccc1-c1ccc(S(C)(=O)=O)cc1` [NMS-873, reference compound]: the inhibition at 1.6 µM in data set [1] (Severe acute respiratory syndrome coronavirus 2, Conc. 1.6 µM (0.4 × CC50), A549/ACE2/TMPRSS2, MOI 0.01, 48 h, mean ± standard error, read-out: SARS-CoV-2 Inhib. (%)) came to 0%. Besides, the “anti-SARS-CoV-2 activity (in words)” value in data set [1] (setting [8]) is recorded as “minimal inhibition”. Besides, in data set [3], the “p97 Inhib. (%) at 0.10 µM” value was “poor inhibition”, the inhibition at 0.1 µM turned out to be 5% and the inhibition at 1 µM turned out to be 84%. In addition, the “fold less toxic than CB-5083” value in data set [4] (A549/ACE2/TMPRSS2 cells, relative to CB-5083) is “approximately 4 fold”. Also, in data set [2], the CC50 at 48 h is 4.1 µM.

With `C=CS(=O)(=O)Nc1cccc2c1cc(C)n2-c1nc(NCc2ccccc2)cc(N2CCCCC2)n1` [Compound 9c, N-(1-(4-(Benzylamino)-6-(piperidin-1-yl)pyrimidin-2-yl)-2-methyl-1H-indol-4-yl)ethenesulfonamide], the inhibition at 5.9 µM in data set [1] (setting [6]) is 0%. Moreover, the “anti-SARS-CoV-2 activity (in words)” value in data set [1] (setting [8]) is “marginal inhibition”. In data set [3], the inhibition at 0.1 µM came to 73% and the inhibition at 1 µM worked out at 95%. For the same molecule, the CC50 at 48 h in data set [2] came to 15 µM.

Consider `C=CC(=O)Nc1cccc2c1cc(C)n2-c1nc(NCc2ccccc2)cc(N2CCCCC2)n1` [Compound 9b, N-(1-(4-(Benzylamino)-6-(piperidin-1-yl)pyrimidin-2-yl)-2-methyl-1H-indol-4-yl)acrylamide], for which the inhibition at 50 µM in data set [1] (setting [9]) amounted to 28 ± 3%. The “anti-SARS-CoV-2 activity (in words)” value in data set [1] (setting [8]) is listed as “markedly reduced”. In addition, in data set [3], the inhibition at 0.1 µM was 64% and the inhibition at 1 µM amounted to 91%.

Take `C=CC(=O)Nc1cccc2c1cc(C)n2-c1nc(NCc2ccccc2)cc(C2CCCCC2)n1` [Compound 10b, N-(1-(4-(Benzylamino)-6-cyclohexylpyrimidin-2-yl)-2-methyl-1H-indol-4-yl)acrylamide]: the inhibition at 50 µM in data set [1] (setting [9]) came to 30 ± 9%. Further, the “anti-SARS-CoV-2 activity (in words)” value in data set [1] (setting [8]) is listed as “markedly reduced”. In data set [3], the inhibition at 0.1 µM turned out to be 70% and the inhibition at 1 µM turned out to be 96%. In addition, in data set [2], the CC50 at 48 h was above 100 µM.

With `Cc1cc2c(C(N)=O)cccc2n1-c1nc2c(c(NCc3ccccc3)n1)COCC2` [CB-5083, reference compound], the “anti-SARS-CoV-2 activity (in words)” value in data set [1] is listed as “minimal inhibition”. Moreover, the inhibition at 0.38 µM in data set [1] (setting [6]) is 6 ± 4%. In addition, the CC50 entry in data set [4] (non-infected A549/ACE2/TMPRSS2 cells, MTS, 48 h) is recorded as “highly toxic”. The same molecule displayed a half-maximal cytotoxic concentration (CC50) at 48 h in data set [2] of 0.95 µM.

On to `CC#CC(=O)Nc1cccc2c1cc(C)n2-c1nc(NCc2ccccc2)cc(N2CCCCC2)n1` [Compound 9a, N-(1-(4-(Benzylamino)-6-(piperidin-1-yl)pyrimidin-2-yl)-2-methyl-1H-indol-4-yl)but-2-ynamide], for which, in data set [1] (setting [5]), the EC50 was 6.7 ± 0.8 µM. Besides, in data set [1] (setting [6]), the inhibition at 30 µM is 98%. Also, the “anti-SARS-CoV-2 activity (in words)” value in data set [1] (setting [8]) is listed as “excellent antiviral activity”. Besides, in data set [3], the “p97 Inhib. (%) at 0.10 µM” value turned out to be 94%, the inhibition at 0.1 µM was above 90% and the inhibition at 1 µM was 100%. The same molecule showed a CC50 at 48 h in data set [2] of 76 µM.

As for `CC#CC(=O)Nc1cccc2c1cc(C)n2-c1nc2c(c(NCc3ccccc3)n1)CCCC2` [Compound 6a, reference compound], the inhibition at 0.22 µM in data set [1] (Severe acute respiratory syndrome coronavirus 2, Conc. 0.22 µM (0.4 × CC50), A549/ACE2/TMPRSS2, MOI 0.01, 48 h, mean ± standard error, read-out: SARS-CoV-2 Inhib. (%)) turned out to be 6 ± 3%. Besides, in data set [1] (setting [8]), the “anti-SARS-CoV-2 activity (in words)” value was “minimal inhibition”. In data set [3], the inhibition at 0.1 µM was 57% and the inhibition at 1 µM stood at 97%.

Turning to `CC#CC(=O)Nc1cccc2c1cc(C)n2-c1nc2c(c(NCc3ccccc3)n1)COCC2` [Compound 6b, reference compound], the inhibition at 0.46 µM in data set [1] (Severe acute respiratory syndrome coronavirus 2, Conc. 0.46 µM (0.4 × CC50), A549/ACE2/TMPRSS2, MOI 0.01, 48 h, mean ± standard error, read-out: SARS-CoV-2 Inhib. (%)) was found to be 5%. For the same molecule, in data set [1] (setting [8]), the “anti-SARS-CoV-2 activity (in words)” value was “minimal inhibition”. Moreover, in data set [3], the inhibition at 0.1 µM was found to be 38% and the inhibition at 1 µM stood at 95%.

(Values after PMC11768289 (Pharmaceuticals, 2025).)
